Measurements published in US4894376A, “Methods of treating diseases characterized by hyperexcitability of neurons” (Trustees of the University of Pennsylvania, priority 1988, dated 1990).

Columns and labels:
frog atrial cells = details: cited from earlier work
T type calcium channel [1] = experiment: Patch clamp (voltage clamp) of T type calcium channel current in neuroblastoma cells; type: cell-based, mouse; details: for T type calcium channel current: 1 uM, neuroblastoma cells, FIG. 3
[2] = system: L and T type calcium channels; details: cited from earlier work
neuroblastoma cell = experiment: Current clamp measurement of membrane potential of a neuroblastoma cell; type: cell-based, mouse
right atrium = details: spontaneously beating right atrium; cited from earlier work
T type calcium channel [3] = experiment: Patch clamp (voltage clamp) of T type calcium channel current in chick dorsal root ganglion neurons; type: cell-based, chick (gallus domesticus); details: DRG neurons; FIG. 2B
SA node = details: cited from earlier work
L type calcium channel = experiment: Patch clamp (voltage clamp) of L type calcium channel current in neuroblastoma cells; type: cell-based, mouse

N=C(NCc1ccc(Cl)c(Cl)c1)NC(=O)c1nc(Cl)c(N)nc1N [3,4-dichlorobenzamil]
calcium currents (frog atrial cells): inhibited calcium currents in frog atrial cells

COc1ccc(CNC(=N)NC(=O)c2nc(Cl)c(N)nc2N)cc1OC [Dimethoxybenzamil, 3,4-dimethoxybenzamil]
T type calcium channel current (T type calcium channel [1]): similarly suppresses the T type current

COC(=O)C1=C(C)NC(C)=C(C(=O)OC)C1c1ccccc1[N+](=O)[O-] [Nifidepine, nifidepine]
calcium channel type blocked [2]: blocks only the L type calcium channel

COc1ccc(CCN(C)CCCC(C#N)(c2ccc(OC)c(OC)c2)C(C)C)cc1OC (stereo not shown) [Verapamil, verapamil]
calcium channel type blocked [2]: block both the L and T type calcium channels

N=C(N)NC(=O)c1nc(Cl)c(N)nc1N [amiloride]
neuronal excitability near threshold (neuroblastoma cell; 250 uM, current pulse to threshold and slightly above threshold, FIG. 5): suppress neuronal excitability at membrane potential near the threshold for regenerative depolarization
depolarization well above threshold (neuroblastoma cell; 250 uM, higher degree of stimulation, FIG. 5): does not block the depolarization at higher degree of stimulation
frequency of contractions (right atrium): decreased the frequency of contractions of the spontaneously beating right atrium
T type calcium channel current (T type calcium channel [3]): completely suppressed the T type calcium channel current
chronotropic action (SA node): negative chronotropic action on the SA node
T type calcium channel current (transient current) (T type calcium channel [1]; N1E-115 cells, held at -90 mV, depolarization to -20 mV, FIG. 1A, 1C): suppresses this T type channel current
L type calcium channel current (slow inactivating current) (L type calcium channel; N1E-115 cells, held at -90 mV, depolarization to +20 mV, FIG. 1A, 1D): does not appreciably suppress this L type channel current

N=C(NCc1ccccc1)NC(=O)c1nc(Cl)c(N)nc1N [benzamil]
regenerative depolarization (neuroblastoma cell; 5 uM, after 1 uM TTX, current pulses of 40 picoamps, FIG. 4): further decreased the regenerative depolarization
T type calcium channel current (T type calcium channel [1]): reversably suppresses the bulk of the T type calcium channel current
increase of T channel activity by addition of a benzyl moiety to the guanidine portion of amiloride (T type calcium channel [1]; relative to amiloride): about fifty
L type current (L type calcium channel; 1 uM, neuroblastoma cells, FIG. 3): without suppressing the L type current

COc1ccc([C@@H]2Sc3ccccc3N(CCN(C)C)C(=O)[C@@H]2OC(C)=O)cc1 [diltiazem]
calcium channel type blocked [2]: block both the L and T type calcium channels
